Laboratory results from US11351165B2, “Agent that increases the expression of the opioid kappa 1 for the treatment of cancer” (LDN Pharma Limited, priority 2017, dated 2022).

Experiments:
Format in all cases: cell-based
OPRK1 [1] = experiment: Level of expression of OPRK1 by immunoblotting in A549 cells; details: A549 lung cancer cells, 1 nM to 10 μM for 48 h
Method: (§1) In order to determine the effect of 6-β-naltrexol or naltrexone on the level of expression of OPRK1, A549 lung cancer or HCT116 colon cancer cells were seeded onto 6-well plates at a density of 2×10^5 cell/well, and allowed to adhere overnight. Cells were then cultured in the presence of naltrexone or 6-β-naltrexol at concentrations of 1 nM, 10 nM, 100 nM, 1 μM or 10 μM for a further 48 h. Cells were then harvested and processed for measurements of OPRK1, opioid receptor-μ1 (OPRM1) and GAPDH using standard immunoblotting techniques.

OPRK1 [2] = experiment: Level of expression of OPRK1 by immunoblotting in HCT116 cells; details: HCT116 colon cancer cells, 1 nM to 10 μM for 48 h
Method: as §1

A549 cells = experiment: Priming with 6-β-naltrexol, then chemotherapy agent; cell number and viability by trypan blue counting, A549; details: FIG. 2c
Method: (§2) The impact of combining 6-β-naltrexol with other chemotherapy agents was tested by culturing cells according to a treatment schedule that involved two phases of treatment. The first phase involved priming with 10 nM 6-β-naltrexol or 10 μM 6-β-naltrexol for 48 h, before treatment with another drug for a further 48 h. A549 and HCT116 cells were seeded into 6-well plates at a density of 2×10^5 cells/well and left to adhere overnight. Media was removed after 48 h, and cells were rinsed gently with drug-free medium. Fresh culture medium that contained gemcitabine (GEM) or oxaliplatin (OXP) was then added to the cells. The concentrations of the chemotherapy agents used were approximately ¼ IC50, as established previously [Liu W M, Fowler D W, Smith P, Dalgleish A G. Pre-treatment with chemotherapy can enhance the antigenicity and immunogenicity of tumours by promoting adaptive immune responses. Br J Cancer. 2010 Jan. 5; 102(1):115-23. doi: 10.1038/sj.bjc.6605465.]. Cells were then left for a further 48 h before assessment of cell number of viability by cell counting using trypan blue dye as a way of discriminating live and dead cells. Cytostasis was indicated by a reduction in cell number and no associated reduction in cell viability.

HCT116 cells = experiment: Priming with 6-β-naltrexol, then chemotherapy agent; cell number and viability by trypan blue counting, HCT116; details: FIG. 2d
Method: as §2

[3] = 10 nM or 10 μM 6-β-naltrexol 48 h, then gemcitabine or oxaliplatin at approx. 1/4 IC50 for 48 h
[4] = 10 nM or 10 μM 6-β-naltrexol alone (6BN-0)

Compound | level of expression of OPRK1 (OPRK1 [1]) | level of expression of OPRK1 (OPRK1 [2]) | cytotoxic effect of chemotherapeutic agents after priming (A549 cells; [3]) | cytotoxicity of the agent alone (A549 cells; [4]) | cytotoxic effect of chemotherapeutic agents after priming (HCT116 cells; [3]) | cytotoxicity of the agent alone (HCT116 cells; [4])
O=C1CC[C@@]2(O)[C@H]3Cc4ccc(O)c5c4[C@@]2(CCN3CC2CC2)[C@H]1O5 [naltrexone, reference compound] | increase the level of expression of ORPK1 | down-regulates the level of expression of OPRK1 | – | – | – | –
Oc1ccc2c3c1OC1[C@H](O)CC[C@@]4(O)[C@@H](C2)N(CC2CC2)CC[C@]314 (stereo partly drawn) [6-β-naltrexol, 17-(Cyclopropylmethyl)-4,5-epoxymorphinan-3,6 beta,14-triol] | increase the level of expression of ORPK1 | increases the level of expression of OPRK1 | cytotoxic effect of both chemotherapeutic agents is increased | absence of any independent increase in cytotoxicity | cytotoxic effect of both chemotherapeutic agents is increased | absence of any independent increase in cytotoxicity
